For data set [1], the target named is CYP2C19 (Homo sapiens, UniProt P33261). In words: CYP2C19 inhibition (fluorescent substrate). Format: in vitro ADME. As to conditions: CYP2C19, CEC substrate; read-out: Cyp IC50 2C19. The method, then: CYP (Cytochrome P450) enzymes are the major drug metabolizing enzymes present in the liver. The inhibition of CYP enzyme activity (IC50) for each of CYP1A2, CYP2C19, CYP2C9, CYP2D6, CYP3A4(BFC) and CYP3A4(BQ) is determined for compounds, where inhibition of metabolism of a known substrate leads to a decrease in the fluorescence of the metabolized product. The fluorescence of the product is monitored as a function of compound concentration.
Chain of CYP2C19 (P33261 whole entry): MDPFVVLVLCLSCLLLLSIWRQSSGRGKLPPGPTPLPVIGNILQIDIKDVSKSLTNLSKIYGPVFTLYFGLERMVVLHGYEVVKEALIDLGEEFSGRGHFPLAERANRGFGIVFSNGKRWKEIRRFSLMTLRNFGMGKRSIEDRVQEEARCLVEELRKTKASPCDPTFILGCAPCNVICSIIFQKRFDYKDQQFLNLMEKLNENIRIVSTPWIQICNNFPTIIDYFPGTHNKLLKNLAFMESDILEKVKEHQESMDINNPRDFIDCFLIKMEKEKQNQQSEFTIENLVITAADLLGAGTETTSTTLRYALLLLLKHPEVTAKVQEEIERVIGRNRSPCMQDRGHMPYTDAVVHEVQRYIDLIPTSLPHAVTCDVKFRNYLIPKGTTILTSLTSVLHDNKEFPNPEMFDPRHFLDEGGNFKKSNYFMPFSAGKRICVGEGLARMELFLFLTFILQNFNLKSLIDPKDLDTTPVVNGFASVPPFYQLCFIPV
(§1) Compounds are dissolved in dimethyl sulfoxide to a concentration of 100 mM. These are diluted 1 μL into 82 μL of acetonitrile. […] These are then serially diluted 1:1 (160 μL to 160 μL co-factor mix) for a total of 10 points. A 10 μL aliquot of this final mixture is dispensed into 384 well assay plates and incubated for 10 minutes at 37° C. […] Assay plates are incubated at 37° C. […] The signal versus compound concentration is used to determine the IC50. The enzymes and substrates for this assay are obtained from BD Biosciences.

Data set [2] addresses CYP3A4(BFC) (Homo sapiens, UniProt P08684). In words: CYP3A4(BFC) inhibition (fluorescent substrate). Format: in vitro ADME. To be noted: read-out: Cyp IC50 3A4(BFC). As for the experimental part: as §1, with “CYP (Cytochrome P450) enzymes are the major drug metabolizing enzymes present in the liver. The inhibition of CYP enzyme activity (IC50) for each of CYP1A2, CYP2C19, CYP2C9, CYP2D6, CYP3A4(BFC) and CYP3A4(BQ) is determined for compounds, where inhibition of metabolism of a known substrate leads to a decrease in the fluorescence of the metabolized product. The fluorescence of the product is monitored as a function of compound concentration. Compounds” for “Compounds”

Data set [3] has as its system SW620 colon adenocarcinoma cells (wild-type B-RAF). In words: SW620 cell growth inhibition (ATPlite). The class given is cell-based. To be noted: Homo sapiens, SW-620, 72 h; SW620, 3 days incubation. In short, it runs like this:
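Cells plated overnight, then exposed 3 days at 37° C to 8-point 1:3 compound dilutions topping at 10 μM final. Viability read as ATPlite luminescence, proportional to cell number; IC50 from luminescence versus concentration.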

Data set [4] has as its target c-Raf-1 (Homo sapiens, UniProt P04049). In words: c-Raf-1 biochemical kinase inhibition (AlphaScreen, biotin-MEK1 substrate). To be noted: 100 μM ATP. As for the experimental part: Compounds to be tested are diluted in dimethyl sulfoxide to a concentration of 0.1 mM. These are serially diluted 15 μL into 30 μL of dimethyl sulfoxide seven times in 96 well plates for a total of 8 dilution points, and for each dilution point 1 μL is added to a well of an assay plate. […] The reaction is started with addition of 10 μL of 200 μM ATP (i.e. final 100 μM ATP). […] The plates are incubated for 3 hours at room temperature and read on Envision reader (Perkin Elmer). […] The signal vs. compound concentration is used to determine the IC50.

SMILES strings stand for the structures.

Chain of CYP3A4(BFC) (P08684 whole entry): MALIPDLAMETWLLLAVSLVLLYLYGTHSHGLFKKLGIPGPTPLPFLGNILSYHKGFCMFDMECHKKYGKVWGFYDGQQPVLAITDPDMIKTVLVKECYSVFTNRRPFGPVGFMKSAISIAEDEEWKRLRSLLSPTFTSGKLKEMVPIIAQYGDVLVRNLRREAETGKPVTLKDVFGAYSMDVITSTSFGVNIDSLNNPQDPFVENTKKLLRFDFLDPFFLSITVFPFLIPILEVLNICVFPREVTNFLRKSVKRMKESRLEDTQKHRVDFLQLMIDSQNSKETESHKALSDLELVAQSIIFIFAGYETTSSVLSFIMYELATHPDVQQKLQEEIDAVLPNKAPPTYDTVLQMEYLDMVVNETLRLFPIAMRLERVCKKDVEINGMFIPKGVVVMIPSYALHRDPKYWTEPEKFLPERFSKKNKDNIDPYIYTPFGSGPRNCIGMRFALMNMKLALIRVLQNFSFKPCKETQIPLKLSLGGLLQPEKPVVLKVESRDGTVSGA
Chain of c-Raf-1 (P04049 whole entry): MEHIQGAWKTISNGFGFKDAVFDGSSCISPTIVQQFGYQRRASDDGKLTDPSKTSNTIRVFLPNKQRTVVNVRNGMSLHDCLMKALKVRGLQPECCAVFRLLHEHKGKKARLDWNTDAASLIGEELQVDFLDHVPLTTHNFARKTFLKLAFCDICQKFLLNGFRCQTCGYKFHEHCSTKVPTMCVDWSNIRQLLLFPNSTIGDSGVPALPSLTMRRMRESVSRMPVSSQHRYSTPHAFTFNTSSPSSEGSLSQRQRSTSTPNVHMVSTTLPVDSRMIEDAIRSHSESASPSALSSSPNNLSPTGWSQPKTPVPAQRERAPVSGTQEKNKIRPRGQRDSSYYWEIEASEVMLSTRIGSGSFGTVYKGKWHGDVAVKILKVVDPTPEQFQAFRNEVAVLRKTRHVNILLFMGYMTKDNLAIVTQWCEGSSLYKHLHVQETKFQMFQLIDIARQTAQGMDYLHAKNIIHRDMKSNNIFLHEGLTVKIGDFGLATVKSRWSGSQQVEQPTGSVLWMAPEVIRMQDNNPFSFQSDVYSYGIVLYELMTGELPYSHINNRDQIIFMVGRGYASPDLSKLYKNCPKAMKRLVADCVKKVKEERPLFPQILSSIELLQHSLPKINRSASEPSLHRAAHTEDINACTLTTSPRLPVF

On to `CCCS(=O)(=O)Nc1ccc(F)c(C(=O)c2c[nH]c3ncc(-c4cnc(N5CCOCC5)nc4)cc23)c1F` [P-2197, Propane-1-sulfonic acid {2,4-difluoro-3-[5-(2-morpholin-4-yl-pyrimidin-5-yl)-1H-pyrrolo[2,3-b]pyridine-3-carbonyl]-phenyl}-amide], for which the IC50 in data set [1] and in data set [2] was over 10 µM throughout.
On to `O=C(c1c(F)ccc(NS(=O)(=O)c2cccc(F)c2)c1F)c1c[nH]c2nccc(Cl)c12` [P-2019, N-[3-(4-Chloro-1H-pyrrolo[2,3-b]pyridine-3-carbonyl)-2,4-difluoro-phenyl]-3-fluoro-benzenesulfonamide], for which the IC50 in data set [3] was over 10 µM; in data set [1], over 10 µM; in data set [2] it was 5 to 10 µM.
In the case of `COc1cnc2[nH]cc(C(=O)c3c(F)ccc(NS(=O)(=O)c4ccccc4F)c3F)c2c1` [P-2009, N-[2,4-Difluoro-3-(5-methoxy-1H-pyrrolo[2,3-b]pyridine-3-carbonyl)-phenyl]-2-fluoro-benzenesulfonamide], the half-inhibitory concentration (IC50) in data set [3], in data set [1] and in data set [2] was over 10 µM each time.
Consider `N#Cc1cnc2[nH]cc(C(=O)c3c(F)ccc(NS(=O)(=O)c4ccccc4F)c3F)c2c1` [P-2011, N-[3-(5-Cyano-1H-pyrrolo[2,3-b]pyridine-3-carbonyl)-2,4-difluoro-phenyl]-2-fluoro-benzenesulfonamide], for which the IC50 in data set [3], in data set [1] and in data set [2] was over 10 µM each time.
In the case of `Cc1cnc2[nH]cc(C(=O)c3c(F)ccc(NS(=O)(=O)c4cccc(F)c4)c3F)c2c1` [P-2016, N-[2,4-Difluoro-3-(5-methyl-1H-pyrrolo[2,3-b]pyridine-3-carbonyl)-phenyl]-3-fluoro-benzenesulfonamide], the IC50 in data set [3], in data set [1] and in data set [2] was over 10 µM throughout.
Regarding `CCCS(=O)(=O)Nc1ccc(F)c(C(=O)c2c[nH]c3ncc(-c4ccc(C(=O)NC)nc4)cc23)c1F` [P-2180, 5-{3-[2,6-Difluoro-3-(propane-1-sulfonylamino)-benzoyl]-1H-pyrrolo[2,3-b]pyridin-5-yl}-pyridine-2-carboxylic acid methylamide], the IC50 in data set [1] is 5 to 10 µM; in data set [2] it was over 10 µM.
On to `CCCS(=O)(=O)Nc1cccc(C(=O)c2c[nH]c3ncc(-c4cnc(N(C)C)nc4)cc23)c1F` [P-2408, Propane-1-sulfonic acid {3-[5-(2-dimethylamino-pyrimidin-5-yl)-1H-pyrrolo[2,3-b]pyridine-3-carbonyl]-2-fluoro-phenyl}-amide], for which the results for the IC50 in data set [4], in data set [1] and in data set [2] were under 0.1 µM, over 10 µM and over 10 µM, respectively.
As to `O=C(c1c(F)ccc(NS(=O)(=O)c2ccccc2F)c1F)c1c[nH]c2nccc(Cl)c12` [P-2017, N-[3-(4-Chloro-1H-pyrrolo[2,3-b]pyridine-3-carbonyl)-2,4-difluoro-phenyl]-2-fluoro-benzenesulfonamide], the IC50 in data set [3], in data set [1] and in data set [2] was over 10 µM throughout.
For `COc1ccnc2[nH]cc(C(=O)c3c(F)ccc(NS(=O)(=O)c4cccc(F)c4)c3F)c12` [P-2023, N-[2,4-Difluoro-3-(4-methoxy-1H-pyrrolo[2,3-b]pyridine-3-carbonyl)-phenyl]-3-fluoro-benzenesulfonamide], the IC50 in data set [4] was under 0.01 µM; in data set [1] it was over 10 µM; in data set [2] it was 5 to 10 µM.
Regarding `O=C(c1c(F)ccc(NS(=O)(=O)c2cc(F)ccc2F)c1F)c1c[nH]c2nccc(Cl)c12` [P-2018, N-[3-(4-Chloro-1H-pyrrolo[2,3-b]pyridine-3-carbonyl)-2,4-difluoro-phenyl]-2,5-difluoro-benzenesulfonamide], the results for the IC50 in data set [3], in data set [1] and in data set [2] were over 10 µM, over 10 µM and 5 to 10 µM, respectively.
Take `CCCS(=O)(=O)Nc1ccc(F)c(C(=O)c2c[nH]c3ncc(-c4cncc(S(C)(=O)=O)c4)cc23)c1F` [P-2188, Propane-1-sulfonic acid {2,4-difluoro-3-[5-(5-methanesulfonyl-pyridin-3-yl)-1H-pyrrolo[2,3-b]pyridine-3-carbonyl]-phenyl}-amide]: the IC50 in data set [1] and in data set [2] was over 10 µM in each case.
Regarding `CCCS(=O)(=O)Nc1ccc(F)c(C(=O)c2c[nH]c3ncc(-c4ccc(C(=O)NCC)nc4)cc23)c1F` [P-2151, 5-{3-[2,6-Difluoro-3-(propane-1-sulfonylamino)-benzoyl]-1H-pyrrolo[2,3-b]pyridin-5-yl}-pyridine-2-carboxylic acid ethylamide], the IC50 in data set [4] was under 0.01 µM; in data set [1], over 10 µM; in data set [2] it was over 10 µM.
For the molecule `CCCS(=O)(=O)Nc1ccc(F)c(C(=O)c2c[nH]c3ncc(-c4ccc(S(C)(=O)=O)cc4)cc23)c1F` [P-2183, Propane-1-sulfonic acid {2,4-difluoro-3-[5-(4-methanesulfonyl-phenyl)-1H-pyrrolo[2,3-b]pyridine-3-carbonyl]-phenyl}-amide], the 50% inhibitory concentration (IC50) in data set [3] is under 20 µM; in data set [1], 5 to 10 µM; in data set [2], over 10 µM.
Taken in the same sequence, the figures for `Cc1cnc2[nH]cc(C(=O)c3c(F)ccc(NS(=O)(=O)c4ccccc4F)c3F)c2c1` [P-2014, N-[2,4-Difluoro-3-(5-methyl-1H-pyrrolo[2,3-b]pyridine-3-carbonyl)-phenyl]-2-fluoro-benzenesulfonamide] were over 10 µM, over 10 µM and over 10 µM.
As to `CCCS(=O)(=O)Nc1ccc(F)c(C(=O)c2c[nH]c3ncc(-c4ccc(C(=O)NC5CC5)nc4)cc23)c1F` [P-2181, 5-{3-[2,6-Difluoro-3-(propane-1-sulfonylamino)-benzoyl]-1H-pyrrolo[2,3-b]pyridin-5-yl}-pyridine-2-carboxylic acid cyclopropylamide], the IC50 in data set [1] and in data set [2] was over 10 µM throughout.
Turning to `CCCS(=O)(=O)Nc1ccc(F)c(C(=O)c2c[nH]c3ncc(-c4ccc(SC)nc4)cc23)c1F` [P-2187, Propane-1-sulfonic acid {2,4-difluoro-3-[5-(6-methylsulfanyl-pyridin-3-yl)-1H-pyrrolo[2,3-b]pyridine-3-carbonyl]-phenyl}-amide], the half-maximal inhibitory concentration (IC50) in data set [3], in data set [1] and in data set [2] was over 10 µM each time.
In the case of `CCCS(=O)(=O)Nc1ccc(F)c(C(=O)c2c[nH]c3ncc(-c4ccc(OC)nc4OC)cc23)c1F` [P-2184, Propane-1-sulfonic acid {3-[5-(2,6-dimethoxy-pyridin-3-yl)-1H-pyrrolo[2,3-b]pyridine-3-carbonyl]-2,4-difluoro-phenyl}-amide], the IC50 in data set [1] and in data set [2] was over 10 µM throughout.
As to `CCCS(=O)(=O)Nc1ccc(F)c(C(=O)c2c[nH]c3ncc(-c4cnn(Cc5ccccc5)c4)cc23)c1F` [P-2190, Propane-1-sulfonic acid {3-[5-(1-benzyl-1H-pyrazol-4-yl)-1H-pyrrolo[2,3-b]pyridine-3-carbonyl]-2,4-difluoro-phenyl}-amide], the IC50 is under 10 µM in data set [3], 5 to 10 µM in data set [1] and over 10 µM in data set [2].
Taken in the same sequence, the figures for `CCCS(=O)(=O)Nc1ccc(F)c(C(=O)c2c[nH]c3ncc(-c4ccnc(F)c4)cc23)c1F` [P-2192, Propane-1-sulfonic acid {2,4-difluoro-3-[5-(2-fluoro-pyridin-4-yl)-1H-pyrrolo[2,3-b]pyridine-3-carbonyl]-phenyl}-amide] were over 10 µM, over 10 µM and over 10 µM.
The corresponding values for `CCCS(=O)(=O)Nc1ccc(F)c(C(=O)c2c[nH]c3ncc(-c4cnn(CCN5CCOCC5)c4)cc23)c1F` [P-2177, Propane-1-sulfonic acid (2,4-difluoro-3-{5-[1-(2-morpholin-4-yl-ethyl)-1H-pyrazol-4-yl]-1H-pyrrolo[2,3-b]pyridine-3-carbonyl}-phenyl)-amide] are under 20 µM, 5 to 10 µM and under 5 µM.

The values above are taken from patent publication US8198273B2, “Compounds and methods for kinase modulation, and indications therefor” (Plexxikon Inc., priority 2009, dated 2012).
